Experimental findings from patent publication US8853246B2 (Dow AgroSciences LLC, priority 2009, dated 2014) are described below.

In test [1] the test system is Green Peach Aphid (Myzus Persicae). In words: Insecticidal test for green peach aphid in foliar spray assay (col. MYZUPE). In kind it is in vivo. The following applies: for pest or weed control at 200 ppm: Myzus persicae, 72 h, read-out: MYZUPE 200 ppm (Corrected % Control, rating). The procedure:
(§1) The compounds were tested against cotton aphid, green peach aphid, and sweet potato whitefly using procedures described in the following examples and reported in Table 2.
(§2) In each case of Table 2, the rating scale is as follows at 200 ppm.
Insecticidal Test for Green Peach Aphid (Myzus Persicae) in Foliar Spray Assay
Cabbage seedlings grown in 3-inch pots, with 2-3 small (3-5 cm) true leaves, were used as test substrate. The seedlings were infested with 20-50 green peach aphids (wingless adult and nymph) one day prior to chemical application. Four pots with individual seedlings were used for each treatment. Compounds (2 mg) were dissolved in 2 mL of acetone/methanol (1:1) solvent, forming stock solutions of 1000 ppm. The stock solutions were diluted 5× with 0.025% Tween 20 in H2O to obtain a test solution at 200 ppm. A hand-held Devilbiss sprayer was used for spraying a solution to both sides of cabbage leaves until runoff. Reference plants (solvent check) were sprayed with the diluent only. Treated plants were held in a holding room for three days at approximately 25° C. and 40% relative humidity (RH) prior to grading. Evaluation was conducted by counting the number of live aphids per plant under a microscope. Corrected % Control=100*(X−Y)/X • where X=No. of live aphids on solvent check plants • Y=No. of live aphids on treated plants

In test [2] the test system is Sweetpotato Whitefly-Crawler (Bemisia Tabaci). In words: Insecticidal test for sweetpotato whitefly-crawler in foliar spray assay (col. BEMITA). The format is in vivo. The following applies: for pest or weed control at 200 ppm: Bemisia tabaci, read-out: BEMITA 200 ppm (Corrected % Control, rating). As to the method: as §1, §2
Insecticidal Test for Sweetpotato Whitefly-Crawler (Bemisia Tabaci) in Foliar Spray Assay
Cotton plants grown in 3-inch pots, with 1 small (3-5 cm) true leaf, were used as test substrate. The plants were placed in a room with whitefly adults. Adults were allowed to deposit eggs for 2-3 days. After a 2-3 day egg-laying period, plants were taken from the adult whitefly room. Adults were blown off leaves using a hand-held Devilbiss sprayer (23 psi). Plants with egg infestation (100-300 eggs per plant) were placed in a holding room for 5-6 days at 82° F. and 50% RH for egg hatch and crawler stage to develop. Four cotton plants were used for each treatment. Compounds (2 mg) were dissolved in 1 mL of acetone solvent, forming stock solutions of 2000 ppm. The stock solutions were diluted 10× with 0.025% Tween 20 in H2O to obtain a test solution at 200 ppm. A hand-held Devilbiss sprayer was used for spraying a solution to both sides of cotton leaf until runoff. Reference plants (solvent check) were sprayed with the diluent only. Treated plants were held in a holding room for 8-9 days at approximately 82° F. and 50% RH prior to grading. Evaluation was conducted by counting the number of live nymphs per plant under a microscope. Insecticidal activity was measured by using Abbott's correction formula and presented in Table 2 (see col. “BEMITA”): Corrected % Control=100*(X−Y)/X • where X=No. of live nymphs on solvent check plants • Y=No. of live nymphs on treated plants Pesticidally Acceptable Acid Addition Salts, Salt Derivatives, Solvates, Ester Derivatives, Polymorphs, Isotopes and Radionuclides

Like-named read-outs stand apart in the source and are kept apart here.

With `CCN(C(=O)CCSC)c1sc(-c2cccnc2)nc1C` [Compound 236], the pest or weed control at 200 ppm in test [1] (green peach aphid) and in test [2] (sweetpotato whitefly-crawler) was 80 to 100% each time.
Regarding `CCN(C(=O)C(C)C(C)SC)c1sc(-c2cccnc2)nc1Cl` (stereo not shown) [Compound 538], the pest or weed control at 200 ppm in test [1] (Abbott's correction formula) and in test [2] (Abbott's correction formula) was 80 to 100% throughout.
Take `CCN(C(=O)CC[S+](C)[O-])c1sc(-c2cncc(F)c2)nc1C` (stereo not shown) [Compound 256]: the pest or weed control at 200 ppm in test [1] (green peach aphid) and in test [2] (sweetpotato whitefly-crawler) was 80 to 100% in each case.
As to `CSCCC(=O)N(C)c1sc(-c2cccnc2)nc1Br` [Compound 498], the pest or weed control at 200 ppm in test [1] (Abbott's correction formula) and in test [2] (Abbott's correction formula) was 80 to 100% each time.
On to `CSCC(C)C(=O)N(c1sc(-c2cccnc2)nc1C)C(C)C` (stereo not shown) [Compound 222], for which the pest or weed control at 200 ppm is 80 to 100% in test [1] (green peach aphid) and below 80% in test [2] (sweetpotato whitefly-crawler).
In the case of `Cc1nc(-c2cccnc2)sc1N(Cc1ccccc1)C(=O)OC(C)(C)C` [Compound 15, Benzyl-(4-methyl-2-pyridin-3-yl-thiazol-5-yl)-carbamic acid tert-butyl ester], the pest or weed control at 200 ppm in test [1] (green peach aphid) and in test [2] (sweetpotato whitefly-crawler) was 80 to 100% each time.
For `Cc1nc(-c2cccnc2)sc1N(C)C(=O)OC(C)(C)C(F)(F)F` [Compound 492], the results for the pest or weed control at 200 ppm in test [1] (Abbott's correction formula) and in test [2] (Abbott's correction formula) were below 80% and 80 to 100%, respectively.
Consider `CCN(C(=O)C(C)c1ccc(Cl)cc1)c1sc(-c2cccnc2)nc1Cl` (stereo not shown) [Compound 540], for which the pest or weed control at 200 ppm in test [1] (Abbott's correction formula) and in test [2] (Abbott's correction formula) was 80 to 100% throughout.
With `CC/N=C(\SCC)N(C)c1sc(-c2cccnc2)nc1C` [Compound 471, 2,3-diethyl-1-methyl-1-(4-methyl-2-pyridin-3-yl-thiazol-5-yl)-isothiourea], the pest or weed control at 200 ppm is 80 to 100% in test [1] (Abbott's correction formula) and below 80% in test [2] (Abbott's correction formula).
For `CCN(C(=O)c1ccsc1)c1sc(-c2cccnc2)nc1Cl` [Compound 527], in that order: below 80% and 80 to 100%.
Regarding `Cc1nc(-c2cccnc2)sc1N(C)C(=O)c1cnco1` [Compound 343], the “MYZUPE 200 ppm (Corrected % Control, rating)” value in test [1] (green peach aphid) is recorded as “A (80-100)”. For the same compound, in test [2] (sweetpotato whitefly-crawler), the “BEMITA 200 ppm (Corrected % Control, rating)” value is “B (Less than 80)”.
On to `CN(C(=O)CCS(C)(=O)=O)c1sc(-c2cccnc2)nc1Cl` [Compound 246], for which the pest or weed control at 200 ppm in test [1] (green peach aphid) and in test [2] (sweetpotato whitefly-crawler) was 80 to 100% in each case.
As for `CN(C)CC(=O)N(C)c1sc(-c2cccnc2)nc1Cl` [Compound 432], the pest or weed control at 200 ppm in test [1] (Abbott's correction formula) and in test [2] (Abbott's correction formula) was below 80% each time.
Take `CN(C(=O)c1cscn1)c1sc(-c2cccnc2)nc1Cl` [Compound 341]: in test [1] (green peach aphid), the “MYZUPE 200 ppm (Corrected % Control, rating)” value was “B (Less than 80)”. Besides, the “BEMITA 200 ppm (Corrected % Control, rating)” value in test [2] (sweetpotato whitefly-crawler) is on record as “B (Less than 80)”.
Regarding `CCN(C(=O)c1scnc1C)c1sc(-c2cccnc2)nc1Cl` [Compound 555], the pest or weed control at 200 ppm in test [1] (Abbott's correction formula) is 80 to 100%; in test [2] (Abbott's correction formula) it was below 80%.
For `C=C(CC)C(=O)N(CC)c1sc(-c2cccnc2)nc1Cl` [Compound 534], in that order: below 80% and 80 to 100%.
Regarding `C/C=C/CCC(=O)Nc1sc(-c2cccnc2)nc1C` [Compound 418], the pest or weed control at 200 ppm in test [1] (green peach aphid) and in test [2] (sweetpotato whitefly-crawler) was 80 to 100% each time.
With `CCN(C(=O)OC(C)(C)C)c1sc(-c2cccnc2)nc1Br` [Compound 452], the pest or weed control at 200 ppm in test [1] (Abbott's correction formula) and in test [2] (Abbott's correction formula) was 80 to 100% each time.
As to `Cc1nc(C)n(CC(C)C(=O)N(C)c2sc(-c3cccnc3)nc2Cl)n1` (stereo not shown) [Compound 333], the “MYZUPE 200 ppm (Corrected % Control, rating)” value in test [1] (green peach aphid) was “A (80-100)”. For the same compound, the “BEMITA 200 ppm (Corrected % Control, rating)” value in test [2] (sweetpotato whitefly-crawler) is recorded as “B (Less than 80)”.
With `Cc1nc(-c2cccnc2)sc1N(C)C(=O)CCS(C)(=O)=O` [Compound 95, 3-methanesulfonyl-N-methyl-N-(4-methyl-2-pyridin-3-yl-thiazol-5-yl)-propionamide], the pest or weed control at 200 ppm in test [1] (green peach aphid) and in test [2] (sweetpotato whitefly-crawler) was 80 to 100% throughout.
